Values after ≈ are worked out from the molar mass of the structure shown.
Assays:
[1] = tested on: PyhfB, PyjaXY, PylpC, and PyydK promoters; assay: RNA (transcriptional) profiling of bacterial cells treated with FAB pathway inhibitors; type: cell-based, B. subtilis; conditions: cerulenin 0.5 or 5 μg/ml, triclosan 0.1 or 1 μg/ml; LB medium, 37° C., 10, 30, or 60 minutes
Excerpt: Genetic Constructs: Conventional transcriptional profiling methods can be used to identify promoters that have increased activity in the presence of antibacterial agents such as cerulenin and triclosan, which are inhibitors of FAB.

[2] = tested on: B. subtilis reporter strains PY79(amy::PyhfB::lacZ, cat) and PY79(amy::PylpC::lacZ, cat); assay: Minimum inhibitory concentration (MIC) determination in 96-well microtiter plate, OD600 read; type: cell-based; conditions: Bacillus subtilis, 18 h, read-out: minimum inhibitory concentration (MIC)
Experimental: The minimum inhibitory concentrations (MIC) for cerulenin and triclosan were determined for each of the reporter strains. To determine the MIC, a compound of interest (e.g., cerulenin or triclosan) was placed in a 96-well microtiter plate such that the concentration of the compound varies in various wells of the plate (e.g., by using a series of 2-fold dilutions of the compound). Approximately 5,000 cells from a logarithmically-growing culture (e.g., the B. subtilis strain PY79) in Luria broth were added to each well (e.g., in a volume of 50-80 μl). The plate then was incubated at 37° C. for approximately 18 hours. The OD600 was then read to measure cell growth in each well of the plate. The lowest concentration of the compound that leads to complete killing of the culture (i.e., the concentration of compound for which the OD600 nm is equal to a control well that contains only media and the test compound) is deemed the MIC for the particular compound and bacterial strain. The MICs for cerulenin and triclosan were 12.5 μg/ml and 5 μg/ml, respectively, for both of the reporter strains. Such inhibitors can be used as lead compounds, which can subsequently be derivatized using standard medicinal chemistry techniques to produce antibacterial agents.

[3] = tested on: PylpC promoter; assay: lacZ reporter assay of promoter induction, strain PY79(amy::PylpC::lacZ, cat); type: cell-based, B. subtilis; conditions: various concentrations, 96-well microplate, 3 hours (FIG. 8)
Excerpt: (§1) Clones containing the PyhfB, PyjaXY, and PylpC promoters have been described in GenBank, and the accession numbers for these clones are set forth in Table 2.
(§2) The reporter strains used in these assays were constructed as follows. PCR products containing the promoters were digested with EcoRI and BamHI, and cloned into the multiple cloning site of pDG268, which also had been digested with EcoRI and BamHI. The plasmid pDG268 is a derivative of pGD364 (See, Cutting and Van der Horn, Molecular Biological Methods for Bacillus, eds. C. R. Harwood and S. M. Cutting, 1990, John Wiley and Sons, NY, N.Y., pp. 52-54). […]
(§3) The reporter strains were incubated, separately, with triclosan or cerulenin at various concentrations, as shown on the X-axes depicted in FIGS. 7 and 8. Each strain and an antibacterial agent were incubated in a 96-well microplate for 3 hours. β-galactosidase activity was detected using the Tropix Galacton Star™ chemiluminescent substrate (3-chloro-5-(4-methoxyspiro{1,2-dioxetane-3,2′-(4′chloro)-tricyclo-[3.3.1.1^3,7]decan}-4-yl)phenyl-B-D-galactopyranoside) and the detection method described below. The fold induction of promoter activity was calculated as the level of activity in the samples containing the antibacterial agent divided by the level of activity in the samples that lacked the agent. […]

[4] = tested on: PyhfB promoter; assay: lacZ reporter assay of promoter induction, strain PY79(amy::PyhfB::lacZ, cat); type: cell-based, B. subtilis; conditions: various concentrations, 96-well microplate, 3 hours (FIG. 7)
Excerpt: as §1, §2, §3

| Structure (SMILES) | activity of the PyhfB, PyjaXY, PylpC, and PyydK promoters (RNA profiling) [1] | MIC [2] [µg/mL] | activity of the PylpC promoter (lacZ reporter, β-galactosidase chemiluminescence) [3] | activity of the PyhfB promoter (lacZ reporter, β-galactosidase chemiluminescence) [4] |
| --- | --- | --- | --- | --- |
| Oc1cc(Cl)ccc1Oc1ccc(Cl)cc1Cl [triclosan] | increase in activity | 5 (≈ 17.3 µM) | increase the activity | increase the activity |
| C/C=C/C/C=C/CCC(=O)[C@H]1O[C@H]1C(N)=O [cerulenin, 2,3-Epoxy-4-oxo-7,1-dodecadienamide] | increase in activity | 12.5 (≈ 56 µM) | increase the activity | increase the activity |
